Measured values as given in US20240099989A1, “AGENT FOR PREVENTING OR IMPROVING PERIPHERAL NEUROPATHY” (KINKI UNIVERSITY, priority 2021, published 2024).
Entries after “also recorded” stand apart in the source; their conditions may differ.

Tests used:
[1] = tested on: Peripheral Neuropathy in a Mouse Caused by Oxaliplatin; experiment: Cold plate test (10° C.), peripheral neuropathy caused by oxaliplatin; format: in vivo, Balb/c mice; details: group receiving 6 mg/kg oxaliplatin only (i.p. Day 0, 7, 14), vs control group
Experimental: The preventive action of xylitol on hyperesthesia that occurs when an anticancer drug, oxaliplatin, was administered was examined. […] Xylitol was orally administered to a mouse simultaneously with the administration of oxaliplatin, and the following tests (cold plate test and von Frey test) were performed. Oxaliplatin is an anticancer drug classified as a platinum-containing drug. In all of the examples described below, a dosage (administered amount) (mg/kg) refers to the weight of the administered substance per kg body weight of the mouse.
Six to seven-week-old female Balb/c mice were used for the tests. All the mice were acclimated for seven days after arrival. Then, the mice were grouped into the following four groups: a control group, a group receiving oxaliplatin, and two groups receiving oxaliplatin and two different doses of xylitol (groups receiving oxaliplatin+xylitol). Each group consisted of nine mice.
(§1) On Day 8 of acclimation, the mice in the group receiving oxaliplatin and the groups receiving oxaliplatin+xylitol were intraperitoneally administered with oxaliplatin at a dose of 6 mg/kg. This day was designated as Day 0 of administration. Thereafter, these mice were intraperitoneally administered with oxaliplatin at a daily dose of 6 mg/kg on Day 7 and Day 14.
The mice in a first group receiving oxaliplatin and xylitol were orally administered with xylitol at a dose of 1 mg/kg daily from Day 0. The mice in a second group receiving oxaliplatin and xylitol were orally administered with xylitol at a dose of 5 mg/kg daily from Day 0.
(§2) A cold plate test was performed to examine the effect of xylitol on paresthesia that is caused by a low temperature stimulus. The mice in the four groups described in (1) of the present example (Example 1) were placed on a cold plate set at 10° C., and withdrawal response time (latent time) was measured. It is presumed that a shorter latent time reflects a greater degree of shunning the low temperature stimulus by the cold plate.
Six to seven-week-old female Balb/c mice were used for the tests as with Example 1. All the mice were acclimated for seven days after arrival. Then, the mice were grouped into the following five groups: a control group, a group receiving only oxaliplatin, and three groups receiving oxaliplatin and three different doses of xylitol. Each group consisted of seven mice.
(§3) On Day 8 of acclimation, the mice in the groups other than the control group were intraperitoneally administered with oxaliplatin at a dose of 6 mg/kg. This day was designated as the first day of the administration (Day 0). Thereafter, these mice were intraperitoneally administered with oxaliplatin at the same dose on Day 7 and Day 14 for a total of 3 doses.
The mice in a first group receiving oxaliplatin+xylitol were orally administered with xylitol at a dose of 5 mg/kg daily from Day 6 of administration. The mice in a second group receiving oxaliplatin+xylitol were orally administered with xylitol at a dose of 25 mg/kg daily from Day 6 of administration. The mice in a third group receiving oxaliplatin+xylitol were orally administered with xylitol at a dose of 100 mg/kg daily from Day 6 of administration. In this context, “Day 6 of administration” means that the number of days after administration is 6. The same applies hereinafter.
as §2, with “A” for “A cold plate”, “performed on the mice in the five groups described in (1) of the present example (Example 2)” for “performed”, “respective” for “the four”, “groups” for “groups described in (1) of the present example (Example 1)”
Six to seven-week-old female Balb/c mice were used for the tests as with Example 1. All the mice were acclimated for seven days after arrival. […]

[2] = tested on: Peripheral Neuropathy in a Mouse Caused by Oxaliplatin; experiment: Von Frey test (0.16 g filament), peripheral neuropathy caused by oxaliplatin; format: in vivo, Balb/c mice; details: group receiving 6 mg/kg oxaliplatin only (i.p. Day 0, 7, 14), vs control group
Excerpt: (§4) Six to seven-week-old female Balb/c mice were used for the tests as with Example 1. All the mice were acclimated for seven days after arrival. Then, the mice were grouped into the following four groups: a control group, a group receiving oxaliplatin, a group receiving D-threitol, and a group receiving oxaliplatin and D-threitol (a group receiving oxaliplatin+D-threitol). Each group consisted of five mice.
as §1, with “group” for “groups”, “oxaliplatin+D-threitol” for “oxaliplatin+xylitol”, “the first day” for “Day 0”, “the administration (Day 0).” for “administration.”
The mice in the group receiving D-threitol and the group receiving oxaliplatin+D-threitol were orally administered with D-threitol at a dose of 5 mg/kg daily from Day 0.
The mice in the four groups described in (1) of the present example (Example 3) were placed in a cage, and the avoidance response frequency (score) was measured by pressing a filament with a bending force of 0.16 g against the back of the hind paw.
as §3, with “group receiving oxaliplatin and” for “groups other than”, “the” for “the control”, “group receiving oxaliplatin+D-threitol” for “group”
The mice in the group receiving 100 mg/kg D-threitol were orally administered with D-threitol at a dose of 100 mg/kg daily from Day 0. The mice in the group receiving oxaliplatin+100 mg/kg D-threitol were orally administered with D-threitol at a dose of 100 mg/kg daily from Day 6 of administration.
For the mice in the four groups described in (1) of the present example (Example 4), the avoidance response frequency (score) was measured by pressing a filament with a bending force of 0.16 g against the back of the hind paw.
as §4, with “L-talitol,” for “D-threitol,”, “L-talitol” for “D-threitol”, “oxaliplatin+L-talitol).” for “oxaliplatin+D-threitol).”, “mice. […]” for “mice.”
The mice in the four groups described in (1) of the present example (Example 5) were placed in a cage, and the avoidance response frequency (score) was measured by pressing a filament with a bending force of 0.16 g against the back of the hind paw. […]

[3] = tested on: Diabetic Peripheral Neuropathy in a Mouse Induced by Streptozotocin; experiment: Cold plate test (4° C.), diabetic peripheral neuropathy induced by streptozotocin; format: in vivo, C57BL/6J mice; details: group receiving streptozotocin only (200 mg/kg, Day 0 only), vs control group
Experimental: (§5) Six to seven-week-old male C57BL/6J mice were used for the tests as with Example 7. All the mice were acclimated for seven days after arrival. Then, the mice were grouped into the following four groups: a control group, a group receiving streptozotocin, a group receiving 1 mg/kg xylitol, and a group receiving streptozotocin+1 mg/kg xylitol. Each group consisted of nine mice.
(§6) The mice in the group receiving 1 mg/kg xylitol were orally administered with xylitol at a dose of 1 mg/kg daily from Day 0. The mice in the group receiving streptozotocin+1 mg/kg xylitol were orally administered with xylitol at a dose of 1 mg/kg daily from Day 21 of administration.
A cold plate test was performed to examine the effect due to xylitol on paresthesia that is caused by a low temperature stimulus. The mice in the four groups described in (1) of the present example (Example 8) were placed on a cold plate set at 4° C., and withdrawal response time (latent time) was measured. It is presumed that a shorter withdrawal response time (latent time) reflects a greater degree of shunning the low temperature stimulus by the cold plate. […]
(§7) On Day 8 of acclimation, the mice in the group receiving streptozotocin and the group receiving streptozotocin+5 mg/kg D-threitol were administered with streptozotocin at a dose of 200 mg/kg. A massive dose of streptozotocin destroys pancreatic cells in the mice. As a result, insulin is no longer secreted, and thus, diabetes can be developed in the mice. This day was designated as the first day of the administration (Day 0). Note that streptozotocin was administered only on the first day of administration.
(§8) The mice in the group receiving 5 mg/kg D-threitol and the group receiving streptozotocin+5 mg/kg D-threitol were orally administered with D-threitol at a dose of 5 mg/kg daily from Day 0. […]
The mice in the group receiving 5 mg/kg D-threitol were orally administered with D-threitol at a dose of 5 mg/kg daily from Day 0. The mice in the group receiving streptozotocin+5 mg/kg D-threitol were orally administered with D-threitol at a dose of 5 mg/kg daily from Day 21 of administration.
(§9) A cold plate test was performed to examine the effect of D-threitol on paresthesia that is caused by a low temperature stimulus. The mice in the four groups described in (1) of the present example (Example 10) were placed on a cold plate set at 4° C., and withdrawal response time (latent time) was measured. […]
as §9, with “L-talitol” for “D-threitol”, “11)” for “10)”

[4] = tested on: Diabetic Peripheral Neuropathy in a Mouse Induced by Streptozotocin; experiment: Von Frey test (0.16 g filament), diabetic peripheral neuropathy induced by streptozotocin; format: in vivo, C57BL/6J mice; details: group receiving streptozotocin only (200 mg/kg, Day 0 only), vs control group
Experimental: as §7, with “streptozotocin+1” for “streptozotocin+5”, “xylitol” for “D-threitol”, “administration. […]” for “administration.”
as §5, §6
The mice in the four groups described in (1) of the present example (Example 8) were placed in a cage, and the avoidance response frequency (score) was measured by pressing a filament with a bending force of 0.16 g against the back of the hind paw. […]
as §7, §8
The mice in the group receiving 5 mg/kg D-threitol were orally administered with D-threitol at a dose of 5 mg/kg daily from Day 0. […]
The mice in the four groups described in (1) of the present example (Example 10) were placed in a cage, and the avoidance response frequency (score) was measured by pressing a filament with a bending force of 0.16 g against the back of the hind paw. […]
The mice in the four groups described in (1) of the present example (Example 11) were placed in a cage, and the avoidance response frequency (score) was measured by pressing a filament with a bending force of 0.16 g against the back of the hind paw. […]

Structure (SMILES)	withdrawal response time (latent time) [1]	avoidance response score [2]	withdrawal response time (latent time) [3]	avoidance response score [4]
O=C1[O][Pt]2([NH][C@@H]3CCCC[C@H]3[NH]2)[O]C1=O [oxaliplatin, reference compound]	reduced from Day 3 to Day 6 of the test; also recorded: uniform reduction in the withdrawal response time	remarkable increase in the avoidance response score	–	–
CN(N=O)C(=O)N[C@H]1C(O)O[C@H](CO)[C@@H](O)[C@@H]1O (mixture of isomers) [streptozotocin, reference compound]	–	–	reduced from Day 7	increased from Day 7
